Tests used:
[1] = tested on: Daudi human Burkitt’s Lymphoma cell line; assay: Study 1: Daudi xenograft human Burkitt's lymphoma subcutaneous tumor model; type: in vivo, CB17 SCID mice; settings: for GRI%: vs vehicle; for Tumor growth relative to vehicle-treated tumors (pairwise comparison): I-263a 7.5 mg/kg BIW, daratumumab 7.5 mg/kg BIW or both, data up to Day 22, p < 0.001
Procedure: (§1) Low tumor volumes can cause problems with the data analysis, so all measurements below 25 cubic mm (including 0 values) were excluded from the analysis. After this exclusion step, the tumor volume was assumed to follow an exponential growth model. More specifically, for a given animal and treatment group,
(§2) Pairwise comparisons were performed, where the mean growth rates were compared for various pairs of treatment conditions. The results were summarized using the growth rate inhibition (GRI). Suppose µT and µC are the mean tumor growth rates for the treatment and reference groups, respectively. Define
(§3) Here, µAB, µA, µB, and µControl are the mean growth rates for the combination, drug A, drug B, and control groups, respectively. As before, µv is the mean tumor growth rate for the vehicle group, which in most cases is the same as the control group. The standard error of the synergy score was calculated as the square root of the sum of squared standard errors across the four groups. The degrees of freedom were estimated using the Welch-Satterthwaite equation. A hypothesis test was performed to determine if the synergy score differed from 0. P-values were calculated by dividing the synergy score by its standard error and tested against a t-distribution (two-tailed) with the above-calculated degrees of freedom. A P value of less than 0.05 is statistically significant.
(§4) The combination results can be interpreted as follows. Statistically significant negative synergy scores indicate a synergistic combination (“Syn.”). Statistically significant positive synergy scores indicate a sub-additive combination (“Sub-add.”) when the combination performs better (i.e. has a lower growth rate) than the best performing single agent. Statistically significant positive synergy scores indicate an antagonistic combination (“Antag.”) when the combination performs worse than the best performing single agent. Scores that are not statistically significant should be considered additive (“Add.”).
Daudi is a human Burkitt’s Lymphoma cell line. A Daudi human xenograft tumor model was generated by subcutaneous inoculation with 2.0 […] 10^6 Daudi cells (cell suspension) in 6 weeks old female CB17 SCID mice (Charles River Laboratories, 251 Ballardvale St., Wilmington, MA) in the flank. When the mean tumor volume reached approximately 120 mm^3, the animals were randomized into one vehicle control and three treatment groups (n=8/group). Mice were then dosed with 20% HPβCD or Compound I-263a and/or daratumumab over a 21-day period. Tumor growth and body weight were measured twice per week during the treatment and post-treatment periods, and mice were humanely euthanized once they had reached their humane endpoint.
A 1.725 mg/mL and a 0.862 mg/mL stock solution of I-263a was formulated weekly in 20% HPβCD and administered intravenously (IV) based on an average body weight using a 0.2 mL dosing volume. Final doses I-263a received were 7.5 mg/kg. I-263a was administered on a BIW schedule for 3 weeks (Days 1, 4, 8, 11, 15, and 18). Daratumumab (anti-CD38 antibody) (Myoderm Medical Supplies, 48 E Main St., Norristown, PA 19401) was purchased at the beginning of the study and stored at 4° C. according to manufacturer’s instructions. Final dose daratumumab received was 7.5 mg/kg based on average body weight. Daratumumab was administered intraperitoneally (IP) using a 0.1 mL dosing volume, on a BIW schedule for 3 weeks (Days, 1, 4, 8, 11, 15, and 18).
(§5) Tumors were measured twice weekly using Vernier calipers. Tumor volumes were calculated using standard equation: V = W^2 x L/2, where V = volume, W = width, and L = length for the tumor. When mean tumor volumes reached approximately 120 mm^3, mice were randomized into control and treatment groups. Mice were randomized into 4 groups (n=8/group) and dosed with vehicle (20% HPβCD), I-263a, daratumumab, or the combination of I-263a plus daratumumab at doses and schedules described above. […]

[2] = tested on: A20-hCD38 mouse B-cell lymphoma cell line engineered to express the human CD38 cell surface protein; assay: Study 2: A20-hCD38 syngeneic mouse tumor model; type: in vivo, Balb/c mice; settings: for GRI%: vs vehicle; for Tumor growth relative to vehicle-treated tumors (pairwise comparison): I-263a 7.5 mg/kg QW or 15 mg/kg Q2W, daratumumab 20 mg/kg BIW, or I-263a plus daratumumab, data up to Day 15, p < 0.001
Procedure: as §1, §2, §3, §4
A20-hCD38 is a mouse B-cell lymphoma cell line engineered to express the human CD38 cell surface protein. An A20-hCD38 syngeneic mouse tumor model was generated by subcutaneous inoculation with 5.0 × 10^6 cells (cell suspension) in 6 weeks old female Balb/c mice (Jackson Laboratory, 10 Discovery Dr., Farmington, CT) in the flank. When the mean tumor volume reached approximately 70 mm^3, the animals were randomized into one vehicle control and five treatment groups (n=8/group). Mice were dosed with 20% HPβCD or Compound I-263a or daratumumab over a 28-day period. Tumor growth and body weight were measured twice per week during the treatment and post-treatment periods, and mice were humanely euthanized once they had reached their humane endpoint.
A 1.575 mg/mL and a 0.788 mg/mL stock solution of I-263a was formulated weekly in 20% HPβCD and administered IV based on an average body weight using a 0.2 mL dosing volume. Final doses I-263a received were 15 mg/kg or 7.5 mg/kg, respectively. I-263a was administered on a QW or Q2W schedule for 4 weeks (Days 1, 8, 15, and 22). Daratumumab (anti-CD38 antibody) (Myoderm Medical Supplies, 48 E Main St., Norristown, PA 19401) was purchased at the beginning of the study and stored at 4° C. according to manufacturer’s instructions. Final dose daratumumab received was 20 mg/kg based on average body weight. Daratumumab was administered intraperitoneally (IP) using a 0.1 mL dosing volume, on a BIW schedule for 4 weeks (Days 1, 4, 8, 11, 15, 18, 22 and 25).
as §5, with “W^2 ×” for “W^2 x”, “approximately 70” for “approximately 120”, “into 6” for “into 4”, “schedules as” for “schedules”

[3] = tested on: SUMO-activating enzyme and SUMOylation; assay: Inhibition of SUMO-activating enzyme and SUMOylation in cultured tumor cell lines; type: cell-based; settings: cultured mouse and human tumor cell lines
SUMO-activating enzyme = SUMO-activating enzyme (Homo sapiens, UniProt Q9UBT2); assay: Biochemical assays of SUMO-activating enzyme inhibition
Chain of SUMO-activating enzyme (Q9UBT2 whole entry): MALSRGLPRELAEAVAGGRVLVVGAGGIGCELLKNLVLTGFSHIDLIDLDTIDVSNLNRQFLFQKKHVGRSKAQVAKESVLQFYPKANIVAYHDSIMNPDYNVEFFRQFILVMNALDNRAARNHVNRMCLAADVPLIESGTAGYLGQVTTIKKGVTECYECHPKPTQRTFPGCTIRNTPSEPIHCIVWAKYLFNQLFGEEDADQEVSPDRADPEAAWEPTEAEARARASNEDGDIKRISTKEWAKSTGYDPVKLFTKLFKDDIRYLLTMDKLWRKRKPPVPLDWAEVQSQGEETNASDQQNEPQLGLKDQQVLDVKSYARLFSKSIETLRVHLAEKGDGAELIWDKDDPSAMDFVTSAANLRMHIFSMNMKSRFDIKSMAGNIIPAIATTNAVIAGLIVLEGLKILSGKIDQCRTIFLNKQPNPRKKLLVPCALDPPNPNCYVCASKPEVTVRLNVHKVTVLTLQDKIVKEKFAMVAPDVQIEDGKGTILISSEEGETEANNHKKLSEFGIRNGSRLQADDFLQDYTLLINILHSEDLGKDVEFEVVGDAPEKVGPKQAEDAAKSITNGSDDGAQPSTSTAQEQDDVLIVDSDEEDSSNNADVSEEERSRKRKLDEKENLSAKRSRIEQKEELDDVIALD
Chain of SUMO-activating enzyme (Q9UBE0 whole entry partner): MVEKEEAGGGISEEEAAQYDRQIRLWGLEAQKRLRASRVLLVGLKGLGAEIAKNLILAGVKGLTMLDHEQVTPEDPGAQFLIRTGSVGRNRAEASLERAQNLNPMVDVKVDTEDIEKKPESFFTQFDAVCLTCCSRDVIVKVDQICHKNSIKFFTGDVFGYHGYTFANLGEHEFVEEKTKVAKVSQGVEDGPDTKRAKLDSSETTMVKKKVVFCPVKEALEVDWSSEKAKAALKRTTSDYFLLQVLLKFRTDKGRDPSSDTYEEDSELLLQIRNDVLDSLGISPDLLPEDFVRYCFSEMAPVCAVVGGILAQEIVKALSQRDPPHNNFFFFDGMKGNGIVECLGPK
Chain of SUMO-activating enzyme (P63165 1-97 partner limits assumed): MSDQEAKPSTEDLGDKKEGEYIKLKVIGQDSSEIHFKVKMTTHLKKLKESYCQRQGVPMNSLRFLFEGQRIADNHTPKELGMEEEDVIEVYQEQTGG

| Molecule | Tumor Volume on Day 22 (±SEM) ([1]; I-263a 7.5 mg/kg BIW IV) | GRI% ([1]; I-263a 7.5 mg/kg BIW IV) [%] | Tumor growth relative to vehicle-treated tumors (pairwise comparison) [1] | Tumor volume on Day 15 (± SEM) ([2]; I-263a 7.5 mg/kg QW IV) | GRI% ([2]; I-263a 7.5 mg/kg QW IV) [%] | Tumor growth relative to vehicle-treated tumors (pairwise comparison) [2] | Tumor volume on Day 15 (± SEM) ([2]; I-263a 15 mg/kg Q2W IV) | GRI% ([2]; I-263a 15 mg/kg Q2W IV) [%] | Inhibition of SUMO-activating enzyme and SUMOylation in cells [3] | Inhibition of SUMO-activating enzyme activity (SUMO-activating enzyme; mechanism-based inhibitor forming a covalent adduct with SUMO) | Selectivity for SUMO-activating enzyme (SUMO-activating enzyme; over ubiquitin-activating enzyme, Nedd8-activating enzyme, and autophagy related 7 enzyme) | Tumor Volume on Day 22 (±SEM) ([1]; Daratumumab 7.5 mg/kg BIW IP) | GRI% ([1]; Daratumumab 7.5 mg/kg BIW IP) [%] | Tumor volume on Day 15 (± SEM) ([2]; Daratumumab 20 mg/kg BIW IP) | GRI% ([2]; Daratumumab 20 mg/kg BIW IP) [%] |
| --- | --- | --- | --- | --- | --- | --- | --- | --- | --- | --- | --- | --- | --- | --- | --- |
| Cc1sc(C(=O)c2cncnc2N[C@@H]2C[C@H](COS(N)(=O)=O)[C@@H](O)C2)cc1[C@@H]1NCCc2ccc(Cl)cc21 [Compound I-263a, [(1R,2S,4R)-4-{[5-({4-[(1R)-7-chloro-1,2,3,4-tetrahydroisoquinolin-1-yl]-5-methyl-2-thienyl}carbonyl)pyrimidin-4-yl]amino}-2-hydroxycyclopentyl]methyl sulfamate] | 1509.4 ± 109.1 | 15 | tumor growth inhibition | 613.1 ± 179.3 | 37 | significant tumor growth inhibition | 839.7 ± 229.7 | 24 | Selective and potent inhibition | potently inhibits enzyme activity | Strong selectivity | – | – | – | – |
| Daratumumab: immunoglobulin G1 kappa (IgG1κ) human monoclonal antibody against CD38 antigen | – | – | tumor growth inhibition | – | – | significant tumor growth inhibition | – | – | – | – | – | 1043.9 ± 159.1 | 29 | 1443.7 ± 276.4 | 3 |

— US20230218618A1, “ADMINISTRATION OF SUMO-ACTIVATING ENZYME INHIBITOR AND ANTI-CD38 ANTIBODIES” (MILLENNIUM PHARMACEUTICALS, INC., priority 2020, published 2023)
